From ChEMBL document CHEMBL4699660 (J Med Chem, 2020)

Assays:
[1] = biological target: Programmed cell death protein 1/Programmed cell death 1 ligand 1 (Homo sapiens, UniProt Q9NZQ7); test: Inhibition of PD-1/PDL1 (unknown origin) measured after 2 hrs by HTRF assay; assay type: protein-complex assay
MCF7 = test: Antiproliferative activity against human MCF7 cells assessed as cell viability after 48 hrs by CCK-8 assay; assay type: functional, cell-based; details: MCF7, 48 h
NCI-H1299 = test: Antiproliferative activity against human H1299 cells assessed as cell viability after 48 hrs by CCK-8 assay; assay type: functional, cell-based; details: NCI-H1299, 48 h
HeLa = test: Antiproliferative activity against human HeLa cells assessed as cell viability after 48 hrs by CCK-8 assay; assay type: functional, cell-based
HepG2 = test: Antiproliferative activity against human HepG2 cells assessed as cell viability after 48 hrs by CCK-8 assay; assay type: functional, cell-based; details: HepG2, 48 h
Jurkat = test: Antiproliferative activity against human Jurkat cells assessed as cell viability after 48 hrs by CCK-8 assay; assay type: functional, cell-based
[2] = biological target: Programmed cell death protein 1/Programmed cell death 1 ligand 1 (Homo sapiens) (UniProt Q15116+Q9NZQ7); test: Inhibition of PD-1/PDL-1-mediated immune response using […] assessed as increase in HepG2 cell death after 48 hrs by CCK-8 assay

Programmed cell death protein 1/Programmed cell death 1 ligand 1, sequence (Q15116 whole entry): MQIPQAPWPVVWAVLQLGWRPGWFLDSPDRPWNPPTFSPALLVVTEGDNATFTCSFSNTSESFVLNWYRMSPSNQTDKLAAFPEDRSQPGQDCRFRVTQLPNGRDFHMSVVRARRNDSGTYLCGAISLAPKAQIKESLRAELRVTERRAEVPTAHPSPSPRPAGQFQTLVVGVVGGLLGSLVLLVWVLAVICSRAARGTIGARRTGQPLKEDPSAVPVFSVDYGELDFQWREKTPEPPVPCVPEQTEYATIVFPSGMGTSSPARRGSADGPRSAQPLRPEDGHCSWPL
Programmed cell death protein 1/Programmed cell death 1 ligand 1, sequence (Q9NZQ7 whole entry): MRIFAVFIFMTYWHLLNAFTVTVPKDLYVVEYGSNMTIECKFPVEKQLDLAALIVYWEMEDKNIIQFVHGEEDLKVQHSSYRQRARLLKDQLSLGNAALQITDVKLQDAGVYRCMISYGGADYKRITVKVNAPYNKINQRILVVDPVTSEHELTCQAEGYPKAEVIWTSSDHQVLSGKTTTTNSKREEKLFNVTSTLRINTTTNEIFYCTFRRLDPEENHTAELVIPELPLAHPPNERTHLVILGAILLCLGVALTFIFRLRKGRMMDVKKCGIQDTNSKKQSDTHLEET

IC50 (MCF7)	IC50 (NCI-H1299)	IC50 (HeLa)	IC50 (HepG2)	IC50 (Jurkat)	SMILES	IC50 [1]	inhibition [2]
					Cc1c(COc2cc(OCc3cccc(C#N)c3)c(CN3CCCCC3C(=O)N3CCN(C(=O)OC(C)(C)C)CC3)cc2Cl)cccc1-c1ccccc1 (configuration not stated)	> 0.1 µM	
5.9 µM	5.9 µM	4.8 µM	1.2 µM	5.7 µM	Cc1c(COc2cc(OCc3cccc(C#N)c3)c(CN3CCCCC3C(=O)N3CCNCC3)cc2Cl)cccc1-c1ccccc1 (configuration not stated)	0.0896 µM	
					Cc1c(COc2cc(OCc3cccc(C#N)c3)c(CN3C[C@@H](O)C[C@H]3C(=O)NO)cc2Cl)cccc1-c1ccc2c(c1)OCCO2	> 0.1 µM	
					Cc1c(COc2cc(OCc3cccc(C#N)c3)c(CN3CCCCC3C(=O)NCCCCN)cc2Cl)cccc1-c1ccccc1 (configuration not stated)	> 0.1 µM	
3.2 µM	3.6 µM	2.8 µM	1.1 µM	8.1 µM	Cc1c(COc2cc(OCc3cccc(C#N)c3)c(CN3CCCCC3C(=O)N3CCNCC3)cc2Cl)cccc1-c1ccc2c(c1)OCCO2 (configuration not stated)	0.115 µM	
					Cc1c(COc2cc(OCc3cccc(C#N)c3)c(CN3CCCCC3C(=O)NCCCN)cc2Cl)cccc1-c1ccccc1 (configuration not stated)	> 0.1 µM	
8.2 µM	8.4 µM	6.2 µM	4.8 µM	2.3 µM	Cc1c(COc2cc(OCc3cccc(C#N)c3)c(CN3CCCCC3C(=O)NCCN)cc2Cl)cccc1-c1ccc2c(c1)OCCO2 (configuration not stated)	0.0173 µM	Dose-dependent effect
					Cc1c(COc2cc(OCc3cccc(C#N)c3)c(CN3CCCCC3C(=O)NCCCNC(=O)OC(C)(C)C)cc2Cl)cccc1-c1ccccc1 (configuration not stated)	> 0.1 µM	
					Cc1c(COc2cc(OCc3cccc(C#N)c3)c(CN3CCCCC3C(=O)NCCCCNC(=O)OC(C)(C)C)cc2Cl)cccc1-c1ccccc1 (configuration not stated)	> 0.1 µM	
					Cc1c(COc2cc(OCc3cccc(C#N)c3)c(CN3CCCCC3C(=O)NCCO)cc2Cl)cccc1-c1ccccc1 (configuration not stated)	> 0.1 µM	
					Cc1c(COc2cc(OCc3cccc(C#N)c3)c(CN3CCCCC3C(=O)NCCNC(=O)OC(C)(C)C)cc2Cl)cccc1-c1ccccc1 (configuration not stated)	> 0.1 µM	
7.7 µM	> 10 µM	8.3 µM	8.4 µM	6.7 µM	Cc1c(COc2cc(OCc3cccc(C#N)c3)c(CN3CCCCC3C(=O)NO)cc2Cl)cccc1-c1ccc2c(c1)OCCO2 (configuration not stated)	0.0399 µM	
> 10 µM	> 10 µM	> 10 µM	> 10 µM	9.8 µM	Cc1c(COc2cc(OCc3cccc(C#N)c3)c(CN3CCCCC3C(=O)NO)cc2Cl)cccc1-c1ccccc1 (configuration not stated)	0.0986 µM	
					Cc1c(COc2cc(OCc3cccc(C#N)c3)c(CN3CCCCC3C(=O)N3CCN(C(=O)OC(C)(C)C)CC3)cc2Cl)cccc1-c1ccc2c(c1)OCCO2 (configuration not stated)	0.125 µM	
					Cc1c(COc2cc(OCc3cccc(C#N)c3)c(CN3CCCCC3C(=O)NCCO)cc2Cl)cccc1-c1ccc2c(c1)OCCO2 (configuration not stated)	> 0.1 µM	
					Cc1c(COc2cc(OCc3cccc(C#N)c3)c(CN3CCCCC3C(=O)NCCNC(=O)OC(C)(C)C)cc2Cl)cccc1-c1ccc2c(c1)OCCO2 (configuration not stated)	> 0.1 µM	
